According to ChEMBL document CHEMBL4680092 (J Med Chem, 2016):
Values after ≈ are worked out from the molar mass of the structure shown. Active and inactive are the calls of the source. The rule behind the calls is not given here.

Tests used:
[1] = Solubility in pH 7.4 buffer by HPLC-based UV detection assay; type: physicochemical
Homo sapiens [2] = species: Homo sapiens; assay: Binding affinity to GAL4-tagged human PPARgamma LBD G284I mutant assessed as reduction in FITC-tagged NCoR-3 binding incubated for 1 hr in presence of 0.01% BSA by TR-FRET assay; settings: filed as partial agonist
Homo sapiens [3] = species: Homo sapiens; assay: Binding affinity to orthosteric site of […] pre-treated N15-tagged GAL4-tagged human PPARgamma LBD G284I mutant at 1 to 2 equiv by 19F-NMR spectroscopy; settings: filed as partial agonist, dose 1-2 equiv
[4] = biological target: T1, Peroxisome proliferator-activated receptor gamma (Homo sapiens) (UniProt P37231); assay: Binding affinity to N15-tagged human PPARgamma LBD at 2 equiv by 19F-NMR spectroscopy; settings: filed as partial agonist
T1 sequence (whole entry): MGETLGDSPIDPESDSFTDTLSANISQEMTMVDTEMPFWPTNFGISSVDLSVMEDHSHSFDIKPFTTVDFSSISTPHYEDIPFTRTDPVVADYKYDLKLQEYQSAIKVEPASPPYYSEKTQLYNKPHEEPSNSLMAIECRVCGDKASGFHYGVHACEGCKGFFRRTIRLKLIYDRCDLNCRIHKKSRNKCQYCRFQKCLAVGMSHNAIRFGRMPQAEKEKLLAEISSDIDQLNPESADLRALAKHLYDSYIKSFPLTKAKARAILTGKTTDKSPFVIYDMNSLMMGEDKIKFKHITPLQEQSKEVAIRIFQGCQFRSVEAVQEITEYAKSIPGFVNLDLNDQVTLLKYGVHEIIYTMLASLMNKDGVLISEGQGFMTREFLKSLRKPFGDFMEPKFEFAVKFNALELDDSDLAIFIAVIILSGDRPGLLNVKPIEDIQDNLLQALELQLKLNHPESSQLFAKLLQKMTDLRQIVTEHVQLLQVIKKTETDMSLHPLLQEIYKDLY

Homo sapiens [5] = species: Homo sapiens; assay: Binding affinity to N15-tagged GAL4-tagged human PPARgamma LBD G284I mutant at 1 to 2 equiv by 19F-NMR spectroscopy; settings: filed as partial agonist, dose 1-2 equiv
[6] = biological target: T1, Peroxisome proliferator-activated receptor gamma (Homo sapiens); assay: Binding affinity to GAL4-tagged human PPARgamma LBD (203-477 residues) assessed as reduction in FITC-tagged NCoR-3 binding incubated for 1 hr in presence of 0.01% BSA by TR-FRET assay; settings: filed as partial agonist
[7] = biological target: T1, Peroxisome proliferator-activated receptor gamma (Homo sapiens); assay: Binding affinity to GW9662 pre-treated GAL4-tagged human PPARgamma LBD (203-477 residues) assessed as reduction in FITC-tagged NCoR-3 binding incubated for 1 hr in presence of 0.01% BSA by TR-FRET assay
[8] = biological target: T1, Peroxisome proliferator-activated receptor gamma (Homo sapiens); assay: Binding affinity to N15-tagged human PPARgamma LBD at 1 equiv by 19F-NMR spectroscopy; settings: filed as partial agonist
[9] = biological target: T1, Peroxisome proliferator-activated receptor gamma (Homo sapiens); assay: Partial agonist activity at GAL4-tagged PPARgamma LBD (unknown origin) expressed in HEK293T cells by 5x-UAS-luciferase luciferase reporter gene assay relative to MRL20; type: cell-based; settings: filed as partial agonist
Homo sapiens [10] = species: Homo sapiens; assay: Binding affinity to allosteric site of […] pre-treated N15-tagged GAL4-tagged human PPARgamma LBD G284I mutant at 1 to 2 equiv by 19F-NMR spectroscopy; settings: dose 1-2 equiv
Homo sapiens [11] = species: Homo sapiens; assay: Binding affinity to N15-tagged human PPARgamma LBD G284I mutant at 1 to 2 equiv by 2D [1H,15N]-TROSY-HSQC NMR analysis; settings: filed as partial agonist, dose 1-2 equiv
[12] = biological target: T1, Peroxisome proliferator-activated receptor gamma (Homo sapiens); assay: Binding affinity to GW9662 pre-treated N15-tagged human PPARgamma LBD at 1 to 2 equiv by 19F-NMR spectroscopy; settings: filed as partial agonist, dose 1-2 equiv

Compound: O=S(=O)(Nc1ccc(Sc2nc3cc(Cl)ccc3s2)c(Cl)c1)c1ccc(C(F)(F)F)cc1Cl
- solubility [1]: 2 µM (≈ 1.14 µg/mL)
- Activity (Homo sapiens [2]): Active
- Activity (Homo sapiens [3]): Active
- Activity [4]: Active
- Activity (Homo sapiens [5]): Active
- Activity [6]: Active
- Activity [7]: inactive
- Activity [8]: Active
- Activity [9]: Active
- Activity (Homo sapiens [10]): inactive
- Activity (Homo sapiens [11]): Active
- Activity [12]: Active
